This passage reports IC50 and Ki results from publication PMC9303812, “Asymmetrically Substituted m‐Terphenyl Phosphates Inhibit the Transcription Factor STAT5a” (Chembiochem, 2021).

Broadly, the IC50 is the midpoint of a concentration-inhibition curve. By Ki is commonly meant the equilibrium dissociation constant of an inhibitor or competing ligand from its target.

The test concerns the target T1, STAT5b (Homo sapiens, UniProt P51692).
T1 sequence (P51692 1-787): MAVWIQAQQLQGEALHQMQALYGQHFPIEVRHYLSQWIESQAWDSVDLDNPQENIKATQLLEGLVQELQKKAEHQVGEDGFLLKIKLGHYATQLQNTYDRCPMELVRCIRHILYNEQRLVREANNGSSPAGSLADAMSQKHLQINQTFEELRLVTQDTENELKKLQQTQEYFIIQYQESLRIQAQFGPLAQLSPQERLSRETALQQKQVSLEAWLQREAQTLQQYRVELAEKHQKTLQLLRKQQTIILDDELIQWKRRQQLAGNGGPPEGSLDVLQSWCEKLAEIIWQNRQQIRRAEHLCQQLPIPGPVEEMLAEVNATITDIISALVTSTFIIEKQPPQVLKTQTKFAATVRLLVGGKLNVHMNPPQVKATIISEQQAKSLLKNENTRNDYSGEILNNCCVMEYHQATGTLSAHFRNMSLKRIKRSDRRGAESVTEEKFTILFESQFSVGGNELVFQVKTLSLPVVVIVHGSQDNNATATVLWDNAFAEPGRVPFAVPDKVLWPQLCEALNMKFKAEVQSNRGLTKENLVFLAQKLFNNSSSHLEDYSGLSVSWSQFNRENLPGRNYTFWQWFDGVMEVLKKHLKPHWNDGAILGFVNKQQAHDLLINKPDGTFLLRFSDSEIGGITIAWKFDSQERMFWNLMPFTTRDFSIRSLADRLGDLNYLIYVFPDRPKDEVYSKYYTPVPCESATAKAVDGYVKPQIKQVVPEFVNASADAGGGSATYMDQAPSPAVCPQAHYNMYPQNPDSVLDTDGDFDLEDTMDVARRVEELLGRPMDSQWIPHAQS
The experiment in a line: Fluorescence polarization (FP) binding assay, STAT5b. Here is the method: Table S1: Activities of test compounds against STAT5a and STAT5b in FP assays . Experiments were carried out in triplicate (n = 3) unless stated otherwise. n/a: not applicable.
[a]data taken from the literature.[1]
Ki values were calculated from IC50 values using the published equation.[2] […]
Table S2: Activities of 12 against STAT5 proteins in FP assays.
Fluorescence polarization assays
Fluorescence polarization assays were essentially carried out as previously described.[1] These assays quantitate to which extent a test compound is able to interfere with binding between a STAT protein and a fluorescein-labeled phosphotyrosine-containing peptide, which is known to bind to the SH2 domain of the respective STAT protein. The following protein […]
concentrations were used: 100 nM for STAT1, 150 nM for STAT3, 30 nM for STAT4, 180 nM for STAT5a, 90 nM for STAT5b and 105 nM for STAT6. All peptides were used at a concentration of 10 nM. The following peptides were used: 5 -carboxyfluorescein -GpYDKPHVL for STAT1; 5-carboxyfluorescein -GpYLPQTV-NH2 for STAT3; 5-carboxyfluorescein-GpYLPQNID-OH for STAT4; 5-carboxyfluorescein-GpYLVLDKW for STAT5a/b, and 5-carboxyfluorescein-GpYVPWQDLI-OH for STAT6. As a buffer system, 10 mM Tris (pH 8.0), 50 mM NaCl, 1 mM EDTA, 1 mM DTT, 0.1 % Nonidet P-40 substitute, and 2 % DMSO in water was used. All compounds tested were incubated for 1 h with the protein. Subsequently, the fluorescein-labeled peptide was added and the fluorescence polarization was measured with an Infinite F500 plate reader (Tecan) after another hour. IC50 values were converted to Ki-values using the published equation.[2]

Like-named read-outs stand apart in the source and are kept apart here.

`COc1cc(-c2cc(OP(=O)(O)O)cc(-c3cc(F)c(F)c(F)c3)c2)cc(OC)c1OC` [6 b] returned an IC50 of 59.4 ± 3.4 µM and a Ki of 29.2 ± 1.7 µM.

`COc1cc(-c2cc(-c3cc(F)c(F)c(F)c3)cc(C(F)P(=O)(O)O)c2)cc(OC)c1OC` (stereo not shown) [compound 12]: the Ki (FP assay, Ki calculated from IC50 (n=3; 6 a n=2), read-out: STAT5b Ki) is 24.9 ± 3.3 µM. Besides, the IC50 (FP assay, n=3 (6a n=2), read-out: STAT5b IC50) is 50.7 ± 6.8 µM.
